# From US10155021B2, “Antimicrobial 4-oxoquinolizines” (Emergent Product Development Gaithersburg Inc., priority 2011, dated 2018)
# Like-named read-outs stand apart in the source and are kept apart here.
# Columns and labels:
# [1] = system: Acinetobacter spp. H064200250; assay: MIC determination for Acinetobacter strains (Example 3); format: cell-based, Acinetobacter sp.; settings: LEV R, CIP R, MRP R, IMP I
# A. baumannii A472 [2] = assay: Preliminary MBC without and with sub-inhibitory polymyxin B (Example 4); format: cell-based, Acinetobacter baumannii; settings: Acinetobacter baumannii, A472, read-out: MBC without PB, A. baumannii A472, without polymyxin B, 2nd experiment
# A. baumannii ATCC 19606 [3] = assay: MIC without and with sub-inhibitory polymyxin B (Example 4); format: cell-based, Acinetobacter baumannii; settings: Acinetobacter baumannii, ATCC19606, A. baumannii ATCC 19606, without polymyxin B, read-out: MIC without PB
# [4] = system: 11 strains of A. baumannii and one strain of Acinetobacter sp.; assay: Preliminary MBC without and with sub-inhibitory polymyxin B, whole panel (Example 4; also strains not listed separately); format: cell-based; settings: Acinetobacter baumannii
# A. baumannii A390 [5] = assay: MIC without and with sub-inhibitory polymyxin B (Example 4); format: cell-based, Acinetobacter baumannii; settings: Acinetobacter baumannii, A390, A. baumannii A390, without polymyxin B, read-out: MIC without PB
# A. baumannii ATCC 19606 [6] = assay: MIC determination for Acinetobacter strains (Example 3); format: cell-based; settings: ATCC19606, reference strain
# [7] = system: resistant strains of A. baumannii and one strain of Acinetobacter sp.; assay: MIC without and with sub-inhibitory polymyxin B, whole panel / MIC ranges (Example 4; also strains not listed separately); format: cell-based; settings: for MIC: Acinetobacter baumannii, without polymyxin B, 2nd experiment
# A. baumannii A390 [8] = assay: MIC determination for Acinetobacter strains (Example 3); format: cell-based; settings: LEV R, CIP R, MRP R, IPM I, AMK R, TET I
# [9] = system: Acinetobacter sp. (H064200250); assay: MIC without and with sub-inhibitory polymyxin B (Example 4); format: cell-based; settings: Acinetobacter, without polymyxin B, read-out: MIC without PB
# A. baumannii A473 [10] = assay: MIC determination for Acinetobacter strains (Example 3); format: cell-based; settings: LEV R, CIP R, MRP R, IMP R, AMK R, TET R
# A. baumannii ATCC 19606 [11] = assay: Preliminary MBC without and with sub-inhibitory polymyxin B (Example 4); format: cell-based, Acinetobacter baumannii; settings: Acinetobacter baumannii, ATCC19606, read-out: MBC without PB, A. baumannii ATCC 19606, without polymyxin B, preliminary MBC
# A. baumannii A472 [12] = assay: MIC determination for Acinetobacter strains (Example 3); format: cell-based; settings: LEV R, CIP R, MRP I, IMP I, AMK R, TET R
# A. baumannii J2 = assay: Preliminary MBC without and with sub-inhibitory polymyxin B (Example 4); format: cell-based, Acinetobacter baumannii; settings: Acinetobacter baumannii, J2, read-out: MBC without PB
# A. baumannii A329 = assay: as above; format: cell-based, Acinetobacter baumannii; settings: Acinetobacter baumannii
# A. baumannii A401 [13] = assay: as above; format: cell-based, Acinetobacter baumannii; settings: Acinetobacter baumannii, A401, read-out: MBC without PB
# A. baumannii A489 [14] = assay: MIC without and with sub-inhibitory polymyxin B (Example 4); format: cell-based, Acinetobacter baumannii; settings: Acinetobacter baumannii, A489, A. baumannii A489, without polymyxin B, read-out: MIC without PB
# [15] = system: Acinetobacter sp. (H064200250); assay: Preliminary MBC without and with sub-inhibitory polymyxin B (Example 4); format: cell-based; settings: Acinetobacter, read-out: MBC without PB
# Procedure: The plates were incubated for 18-20 hours at 37° C. The MBC was read as the lowest concentration at which colony growth was ca. 90% less than the positive control (i.e. usually where single colonies or no colonies were observed).
# A. baumannii A472 [16] = assay: MIC without and with sub-inhibitory polymyxin B (Example 4); format: cell-based, Acinetobacter baumannii; settings: Acinetobacter baumannii, A472, A. baumannii A472, without polymyxin B, read-out: MIC without PB
# A. baumannii A390 [17] = assay: Preliminary MBC without and with sub-inhibitory polymyxin B (Example 4); format: cell-based, Acinetobacter baumannii; settings: Acinetobacter baumannii, A390, read-out: MBC without PB
# A. baumannii A489 [18] = assay: as above; format: cell-based, Acinetobacter baumannii; settings: Acinetobacter baumannii, A489, read-out: MBC without PB, A. baumannii A489, without polymyxin B, 2nd experiment
# A. baumannii A473 [19] = assay: MIC without and with sub-inhibitory polymyxin B (Example 4); format: cell-based, Acinetobacter baumannii; settings: Acinetobacter baumannii, A473, A. baumannii A473; without polymyxin B; 1st experiment; read-out: MIC without PB
# A. baumannii A489 [20] = assay: MIC determination for Acinetobacter strains (Example 3); format: cell-based; settings: LEV R, CIP R, MRP R, IMP R, AMK R, TET R
# A. baumannii A401 [21] = assay: MIC without and with sub-inhibitory polymyxin B (Example 4); format: cell-based, Acinetobacter baumannii; settings: Acinetobacter baumannii, A401, A baumannii A 401; without polymyxin B; 2nd experiment; visual reading; read-out: MIC without PB
smiles,measurement,setting,value
"COc1c(N2C[C@@H]3CCCN[C@@H]3C2)c(F)cc2c(=O)c(C(=O)O)cn(C3CC3)c12 [Moxifloxacin, reference compound]",MIC,[1],16 µg/mL
same,MBC,A. baumannii A472 [2],16 µg/mL
same,MIC,A. baumannii ATCC 19606 [3]; 1st experiment,0.5 µg/mL
same,MIC,"A. baumannii ATCC 19606 [3]; 2nd experiment, visual reading",1 µg/mL
same,MBC,"[4]; NCTC13301, read-out: MBC without PB, A. baumannii NCTC 13301, without polymyxin B, 1st experiment",32 µg/mL
same,MBC,"[4]; NCTC13301, read-out: MBC without PB, A. baumannii NCTC 13301, without polymyxin B, 2nd experiment",64 µg/mL
same,MBC,"[4]; read-out: MBC without PB, A. baumannii A14, without polymyxin B, 1st experiment",32 µg/mL
same,MBC,"[4]; read-out: MBC without PB, A. baumannii A14, without polymyxin B, 2nd experiment",32 µg/mL
same,MIC,A. baumannii A390 [5]; 1st experiment,16 µg/mL
same,MIC,"A. baumannii A390 [5]; 2nd experiment, visual reading",16 µg/mL
same,MIC,A. baumannii ATCC 19606 [6],0.5 µg/mL
same,fold greater activity (fold lower MIC) in presence of polymyxin B compared to without polymyxin B,[7],not significantly affected
same,MIC,"[7]; NCTC13301, A. baumannii NCTC 13301, visual reading, read-out: MIC without PB",64 µg/mL
same,MIC,"[7]; 11 strains, read-out: MIC range without PB 14-10-2008 n = 11",8 to 64 µg/mL
same,MIC,A. baumannii A390 [8],16 µg/mL
same,MIC,"[9]; Acinetobacter spp. H064200250 (OXA51), 2nd experiment, visual reading",16 µg/mL
same,MIC,"[9]; Acinetobacter spp. H064200250, 1st experiment",16 µg/mL
same,MIC,A. baumannii A473 [10],16 µg/mL
same,MBC,A. baumannii ATCC 19606 [11]; 2nd experiment,1 µg/mL
same,MBC,A. baumannii ATCC 19606 [11]; 1st experiment,0.5 µg/mL
same,MIC,A. baumannii A472 [12],16 µg/mL
same,MBC,A. baumannii J2,32 µg/mL
same,MBC,"A. baumannii A329; A329, read-out: MBC without PB, A. baumannii A329, without polymyxin B, 1st experiment",64 µg/mL
same,MBC,"A. baumannii A329; A329, read-out: MBC without PB, A. baumannii A329, without polymyxin B, 2nd experiment",32 µg/mL
same,MBC,A. baumannii A401 [13],16 µg/mL
same,MIC,A. baumannii A489 [14]; 1st experiment,16 µg/mL
same,MIC,"A. baumannii A489 [14]; 2nd experiment, visual reading",16 µg/mL
same,MBC,[15],16 µg/mL
same,MIC,A. baumannii A472 [16]; 1st experiment,16 µg/mL
same,MIC,"A. baumannii A472 [16]; 2nd experiment, visual reading",16 µg/mL
same,MBC,A. baumannii A390 [17],16 µg/mL
same,MBC,A. baumannii A489 [18],16 µg/mL
same,MIC,A. baumannii A473 [19],16 µg/mL
same,MIC,A. baumannii A489 [20],16 µg/mL
same,MIC,A. baumannii A401 [21],16 µg/mL
